The values below come from ChEMBL document CHEMBL1201862, “PubChem BioAssay data set” (2004).

The IC50 is the concentration that gives 50% inhibition. Broadly, the AC50 is the concentration at which the activity in the assay is half-maximal.

Assay [1] concerns the target T1, Protein skinhead-1 (Caenorhabditis elegans, UniProt P34707).
T1 sequence (P34707 whole entry): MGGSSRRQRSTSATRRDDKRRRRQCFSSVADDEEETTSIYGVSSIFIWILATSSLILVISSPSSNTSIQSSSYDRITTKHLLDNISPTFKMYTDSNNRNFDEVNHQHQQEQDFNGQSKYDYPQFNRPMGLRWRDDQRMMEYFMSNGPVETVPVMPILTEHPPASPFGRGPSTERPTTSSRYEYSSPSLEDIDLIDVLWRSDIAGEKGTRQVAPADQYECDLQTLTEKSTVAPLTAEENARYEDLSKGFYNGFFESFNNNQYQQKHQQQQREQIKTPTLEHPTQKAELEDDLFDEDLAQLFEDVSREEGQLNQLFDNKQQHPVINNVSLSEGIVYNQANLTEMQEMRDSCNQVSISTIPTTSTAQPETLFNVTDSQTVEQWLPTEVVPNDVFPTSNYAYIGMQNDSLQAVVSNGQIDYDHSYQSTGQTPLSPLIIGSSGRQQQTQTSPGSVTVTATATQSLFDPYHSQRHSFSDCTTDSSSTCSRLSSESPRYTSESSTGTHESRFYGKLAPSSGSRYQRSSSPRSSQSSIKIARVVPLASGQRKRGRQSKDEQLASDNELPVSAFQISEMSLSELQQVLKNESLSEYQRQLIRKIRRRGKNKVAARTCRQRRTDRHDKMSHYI
The assay is classed as functional.

Assay [2] concerns the target T2, Replicative DNA helicase DnaB (Mycobacterium tuberculosis, UniProt P9WMR3).
T2 sequence (P9WMR3 whole entry): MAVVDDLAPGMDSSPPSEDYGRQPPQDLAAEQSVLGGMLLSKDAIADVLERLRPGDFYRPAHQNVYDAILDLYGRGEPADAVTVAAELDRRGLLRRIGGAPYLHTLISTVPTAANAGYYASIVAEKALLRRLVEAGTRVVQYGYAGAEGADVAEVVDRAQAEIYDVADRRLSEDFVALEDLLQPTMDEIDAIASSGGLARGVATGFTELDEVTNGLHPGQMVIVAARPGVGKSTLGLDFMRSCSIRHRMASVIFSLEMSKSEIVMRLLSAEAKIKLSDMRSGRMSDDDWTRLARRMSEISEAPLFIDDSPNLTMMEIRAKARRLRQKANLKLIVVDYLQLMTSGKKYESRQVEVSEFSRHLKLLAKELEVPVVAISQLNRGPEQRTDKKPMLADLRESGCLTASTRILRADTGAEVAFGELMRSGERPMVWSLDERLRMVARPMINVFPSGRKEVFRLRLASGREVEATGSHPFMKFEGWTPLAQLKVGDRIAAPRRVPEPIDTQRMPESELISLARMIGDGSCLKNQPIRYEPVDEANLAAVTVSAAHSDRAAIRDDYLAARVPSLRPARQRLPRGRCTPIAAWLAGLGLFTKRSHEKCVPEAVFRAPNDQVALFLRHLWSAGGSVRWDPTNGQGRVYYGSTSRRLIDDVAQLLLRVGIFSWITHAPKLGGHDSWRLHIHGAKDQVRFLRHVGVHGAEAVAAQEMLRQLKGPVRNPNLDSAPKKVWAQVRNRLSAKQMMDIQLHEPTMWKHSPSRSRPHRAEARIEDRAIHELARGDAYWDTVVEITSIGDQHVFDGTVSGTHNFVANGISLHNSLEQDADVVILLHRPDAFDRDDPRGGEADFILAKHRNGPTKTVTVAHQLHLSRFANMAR
Description: DnaB intein splicing inhibitors, dose response, biochemical, cell-free fluorescence (AID 449749). The assay is classed as functional.

The target in assay [3] is T3, Protein RecA (Mycobacterium tuberculosis, UniProt P9WHJ3).
T3 sequence (P9WHJ3 whole entry): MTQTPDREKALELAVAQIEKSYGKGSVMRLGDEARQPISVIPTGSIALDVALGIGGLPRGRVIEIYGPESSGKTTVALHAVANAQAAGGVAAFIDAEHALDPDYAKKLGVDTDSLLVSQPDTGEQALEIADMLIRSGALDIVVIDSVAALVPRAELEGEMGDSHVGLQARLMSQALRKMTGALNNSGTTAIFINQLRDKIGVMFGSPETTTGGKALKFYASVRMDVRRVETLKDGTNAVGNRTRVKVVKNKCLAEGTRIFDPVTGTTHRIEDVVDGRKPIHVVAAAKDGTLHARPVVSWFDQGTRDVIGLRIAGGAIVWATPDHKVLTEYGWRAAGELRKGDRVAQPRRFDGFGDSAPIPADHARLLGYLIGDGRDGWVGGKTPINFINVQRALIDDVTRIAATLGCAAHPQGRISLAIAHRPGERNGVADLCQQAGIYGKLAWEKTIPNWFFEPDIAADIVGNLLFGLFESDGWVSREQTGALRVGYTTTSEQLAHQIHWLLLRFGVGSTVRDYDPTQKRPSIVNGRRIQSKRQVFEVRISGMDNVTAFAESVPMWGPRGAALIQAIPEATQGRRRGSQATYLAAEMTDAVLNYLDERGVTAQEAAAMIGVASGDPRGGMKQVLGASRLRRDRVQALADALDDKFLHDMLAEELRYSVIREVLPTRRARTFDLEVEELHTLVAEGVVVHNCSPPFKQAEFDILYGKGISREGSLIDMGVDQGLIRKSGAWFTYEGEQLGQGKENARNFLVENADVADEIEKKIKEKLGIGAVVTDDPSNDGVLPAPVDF
Description: Fluorescence Cell-Free Homogeneous Dose Retest to Identify Inhibitors of RecA-Intein Splicing Activity. [Related pubchem assays (depositor defined):AID2097, AID2223, AID489010, AID492950]. The class given is functional.

Assay [4] has as its target T4, Corticotropin-releasing factor receptor 2/Corticotropin-releasing factor-binding protein (Homo sapiens, UniProt P24387+Q13324).
T4 sequence (Q13324 whole entry): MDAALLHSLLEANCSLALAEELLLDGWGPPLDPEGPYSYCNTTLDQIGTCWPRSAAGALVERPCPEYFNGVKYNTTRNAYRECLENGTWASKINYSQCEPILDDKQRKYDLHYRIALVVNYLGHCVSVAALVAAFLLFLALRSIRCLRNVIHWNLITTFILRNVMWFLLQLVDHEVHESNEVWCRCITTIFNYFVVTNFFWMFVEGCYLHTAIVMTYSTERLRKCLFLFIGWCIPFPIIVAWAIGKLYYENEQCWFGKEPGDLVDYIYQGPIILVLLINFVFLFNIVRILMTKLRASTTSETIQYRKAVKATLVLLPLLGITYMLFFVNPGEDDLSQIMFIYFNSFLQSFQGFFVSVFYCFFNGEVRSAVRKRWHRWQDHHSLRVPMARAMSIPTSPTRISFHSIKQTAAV
T4 sequence (P24387 whole entry): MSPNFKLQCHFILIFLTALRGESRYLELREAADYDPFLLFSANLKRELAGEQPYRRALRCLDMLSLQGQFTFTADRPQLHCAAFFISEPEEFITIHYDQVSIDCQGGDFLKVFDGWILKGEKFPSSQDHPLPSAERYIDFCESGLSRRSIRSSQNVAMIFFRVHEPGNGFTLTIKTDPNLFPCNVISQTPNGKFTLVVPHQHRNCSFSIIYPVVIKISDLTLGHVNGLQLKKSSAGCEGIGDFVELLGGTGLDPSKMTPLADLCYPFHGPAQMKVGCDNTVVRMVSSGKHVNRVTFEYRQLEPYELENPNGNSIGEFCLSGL
Description: activators of CRF receptor 2 with binding protein – uHTS hits, confirmation (AID 602473). The class given is functional. The note with it: read-out: EC50_Mean.

Assay [5] addresses Cytochrome P450 2D6 (Homo sapiens, UniProt P10635).
The target in assay [6] is Cytochrome P450 2C9 (Homo sapiens, UniProt P11712).
Cytochrome P450 2C9, sequence (P11712 whole entry): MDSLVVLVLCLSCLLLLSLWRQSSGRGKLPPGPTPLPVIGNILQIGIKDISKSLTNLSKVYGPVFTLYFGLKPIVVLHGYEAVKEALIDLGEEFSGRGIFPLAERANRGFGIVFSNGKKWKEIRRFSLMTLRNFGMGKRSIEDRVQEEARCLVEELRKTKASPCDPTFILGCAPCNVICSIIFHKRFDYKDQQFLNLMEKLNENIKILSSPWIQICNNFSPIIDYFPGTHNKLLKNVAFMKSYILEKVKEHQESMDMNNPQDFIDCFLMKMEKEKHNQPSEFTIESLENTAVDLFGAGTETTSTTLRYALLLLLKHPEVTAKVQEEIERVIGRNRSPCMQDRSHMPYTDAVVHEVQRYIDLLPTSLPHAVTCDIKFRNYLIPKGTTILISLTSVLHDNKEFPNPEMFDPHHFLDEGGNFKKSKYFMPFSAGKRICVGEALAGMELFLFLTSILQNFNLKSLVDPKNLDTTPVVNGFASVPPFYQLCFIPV
Assay [7] addresses T5, Cytochrome P450 1A2 (Homo sapiens, UniProt P05177).
T5 sequence (P05177 whole entry): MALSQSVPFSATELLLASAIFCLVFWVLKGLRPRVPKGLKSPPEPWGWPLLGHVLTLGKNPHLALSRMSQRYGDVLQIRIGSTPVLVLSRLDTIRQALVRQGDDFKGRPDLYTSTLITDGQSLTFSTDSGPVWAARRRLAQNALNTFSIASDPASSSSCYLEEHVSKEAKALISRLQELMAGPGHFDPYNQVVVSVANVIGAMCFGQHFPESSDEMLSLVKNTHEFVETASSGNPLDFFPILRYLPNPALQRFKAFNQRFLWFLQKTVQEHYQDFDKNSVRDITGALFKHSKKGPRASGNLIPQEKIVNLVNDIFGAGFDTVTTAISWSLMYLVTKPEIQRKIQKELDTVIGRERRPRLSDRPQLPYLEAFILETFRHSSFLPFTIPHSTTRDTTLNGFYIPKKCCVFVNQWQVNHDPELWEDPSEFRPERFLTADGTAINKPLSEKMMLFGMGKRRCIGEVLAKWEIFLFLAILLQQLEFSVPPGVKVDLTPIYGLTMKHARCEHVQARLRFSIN

The source made the active and inactive calls.

Cytochrome P450 2D6, sequence (P10635 whole entry): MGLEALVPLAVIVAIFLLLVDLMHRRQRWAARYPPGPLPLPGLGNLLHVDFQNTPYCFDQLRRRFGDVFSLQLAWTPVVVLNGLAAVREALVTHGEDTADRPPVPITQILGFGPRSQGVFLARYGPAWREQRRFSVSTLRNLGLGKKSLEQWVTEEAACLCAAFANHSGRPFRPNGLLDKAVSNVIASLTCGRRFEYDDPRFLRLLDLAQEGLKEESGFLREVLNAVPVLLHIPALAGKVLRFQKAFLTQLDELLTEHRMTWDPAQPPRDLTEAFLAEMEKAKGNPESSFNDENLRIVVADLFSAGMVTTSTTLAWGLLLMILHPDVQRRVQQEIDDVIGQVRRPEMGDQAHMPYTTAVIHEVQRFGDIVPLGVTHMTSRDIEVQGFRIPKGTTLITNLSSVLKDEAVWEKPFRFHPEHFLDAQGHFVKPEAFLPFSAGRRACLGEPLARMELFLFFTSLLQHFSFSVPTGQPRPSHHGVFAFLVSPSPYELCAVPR

For the molecule `Cc1ccccc1CNC(=O)c1ccc2sc([C@H]3C[C@H](O)[C@@H](CO)O3)nc2c1`, the IC50 in assay [1] is > 100 µM (inactive).

With `Oc1cc(-c2ccccc2)n[nH]1`, the concentration at half-maximal activity (AC50) in assay [2] is 1.43 µM (active). The EC50 in assay [3] was 0.517 µM (active).

Turning to `COc1ccccc1C(=O)Nc1ccc(Br)cc1C`, the IC50 in assay [1] is > 100 µM (inactive).

`COc1ccc(-c2ccc(C3C(C#N)=C(N)Oc4[nH]nc(C)c43)o2)cc1` (configuration not stated): in assay [4], the EC50 is 10.1 µM (active).

Consider `CCN(CC(=O)Nc1ccccc1C(F)(F)F)C(=O)C1CC(=O)N(Cc2ccccc2)C1` (configuration not stated), for which the IC50 in assay [1] is > 100 µM (inactive).

Consider `CCOc1cc(NC(=O)c2ccco2)c(OCC)cc1NC(=O)CCc1ccccc1OC`, for which the IC50 in assay [1] is > 100 µM (inactive).

Consider `Nc1nc(-c2ccc(Oc3ccccc3)cc2)cs1`, for which the IC50 in assay [1] was 98.1 µM (inactive).

Turning to `COc1ccc(C2C(C#N)=C(N)Oc3[nH]nc(C)c32)cc1CN1CCN(c2ccc(F)cc2)CC1` (configuration not stated), the figures for the half-maximal activity concentration (AC50) in assay [2], in assay [5] and in assay [6] were 10.3 µM (active), 25.1 µM (inconclusive) and 35.5 µM (inconclusive), respectively. Also, the EC50 in assay [3] was 6.55 µM (active).

As to `O=C(C=Cc1ccccc1)c1cc(Br)ccc1O`, the IC50 in assay [1] is > 100 µM (inactive).

Take `ClCc1nnc(-c2cc3c(s2)CCCC3)o1`: the AC50 in assay [2] is 10.7 µM (active). Also, the EC50 in assay [3] is 3.55 µM (active).

Take `Cc1cc(CC(=O)O)n(C)c1C(=O)c1ccc(Cl)cc1` [ZOMEPIRAC SODIUM]: the half-maximal activity concentration (AC50) in assay [7] is 12.6 µM (inconclusive).

With `CCCc1n[nH]c2c1C(c1ccc(OC)cc1OC)C(C#N)=C(N)O2` (configuration not stated), in assay [2], the concentration at half-maximal activity (AC50) is 6.28 µM (active). In assay [3], the EC50 is 4.07 µM (active).

`Cn1nc(C(=O)N2CCN(S(=O)(=O)c3ccccc3)CC2)c2ccccc2c1=O`: in assay [1], the IC50 was > 100 µM (inactive).

Regarding `CC1(c2ccc(Cl)cc2)NC(=O)N(CN2CCOCC2)C1=O` (configuration not stated), in assay [1], the IC50 was > 100 µM (inactive).

In the case of `CCOC(=O)/C=c1\s/c(=C(\C#N)C(N)=O)n(-c2ccccc2)c1=O`, the AC50 in assay [2] was 9.68 µM (active). Further, the EC50 in assay [3] is > 380 µM (inconclusive).

With `Cc1cc(N2CCOCC2)nc(N)n1`, the EC50 in assay [4] is 10.4 µM (active).

Take `O=[N+]([O-])c1ccc2cn(-c3ccccc3)nc2c1`: the IC50 in assay [1] was 54.4 µM (inactive).

On to `Cc1cc2ccccc2n1CCNC(=O)c1ccc(S(=O)(=O)N2CCOCC2)cc1`, for which the IC50 in assay [1] is > 100 µM (inactive).

As for `Cc1n[nH]c2c1C1(CCN(C(=O)c3ccccc3)CC1)C(C#N)=C(N)O2`, the AC50 in assay [2] is 7.89 µM (active). In addition, in assay [3], the EC50 was 1.3 µM (active).

Consider `CCOC(=O)c1c(/N=C/C2C(=O)NC(=S)NC2=O)sc2c1CCC2`, for which the EC50 in assay [4] is > 53 µM (inactive).

On to `CCCC(C(=O)NCC1CCCO1)N(Cc1ccccc1)C(=O)CNS(=O)(=O)c1ccccc1` (configuration not stated), for which the IC50 in assay [1] was > 100 µM (inactive).

Take `Nc1nc(-c2ccc(-c3ccccc3)cc2)cs1`: in assay [1], the IC50 was > 100 µM (inactive).

With `CCOC(=O)c1ccc(CC2S/C(=C(\C#N)C(C)=O)NC2=O)cc1` (configuration not stated), in assay [2], the AC50 is > 380 µM (inactive). Moreover, the EC50 in assay [3] was > 380 µM (inactive).

Consider `Cc1noc(C)c1-c1ccc2ncnc(N3CCC(C(=O)O)CC3)c2c1`, for which the half-maximal activity concentration (AC50) in assay [7] is 25.1 µM (inconclusive).

With `O=C=Nc1ccc(Cc2ccc(N=C=O)cc2)cc1.O=c1oc(=O)c2cc3c(=O)oc(=O)c3cc12`, the AC50 in assay [7] was 5.01 µM (inconclusive).

As to `COc1ccccc1N1CCN(CCCCN2C(=O)CCC2=O)CC1`, the concentration at half-maximal activity (AC50) in assay [7] was 39.8 µM (inconclusive).

For the molecule `Oc1ccc(Nc2nc(-c3ccc(O)cc3)cs2)cc1`, the AC50 in assay [2] is 111 µM (active). Moreover, the EC50 in assay [3] was 43.8 µM (active).

Consider `N#C/C(=C/c1ccc(-c2ccc([N+](=O)[O-])cc2)o1)c1nnc(N2CCOCC2)n1-c1ccccc1`, for which the EC50 in assay [4] is 11 µM (active).

Turning to `CCCCN(C(=O)c1cccc2c(=O)c(C)c(-c3ccccc3)oc12)c1ccccc1`, in assay [2], the AC50 was 4.15 µM (active). For the same molecule, the EC50 in assay [3] is 15.2 µM (active).

As to `COc1cc(/C=C2/C(=O)N(c3ccc(Br)cc3)N=C2C)cc(OC)c1OC`, the AC50 in assay [2] is 4.08 µM (active). Further, in assay [3], the EC50 is 12.4 µM (active).
